Reference: ChEMBL document CHEMBL1909046, “DrugMatrix in vitro pharmacology data”

Legend:
[1] = target: Epidermal growth factor receptor (Homo sapiens, UniProt P00533); assay: DRUGMATRIX: Protein Tyrosine Kinase, EGF Receptor enzyme inhibition (substrate: Poly(Glu:Tyr)); assay type: cell-based, Insect cells; settings: insect cells; Not Active = under 50% inhibition at 10 µM
[2] = target: T1, Nitric oxide synthase, inducible (Mus musculus, UniProt P29477); parameters: species or system Escherichia coli;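 also: inhibition of iNOS enzyme activity measured with L-arginine as substrate; in other assays of this panel Not Active means under 50% inhibition at 10 µM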
T1 sequence (P29477 whole entry): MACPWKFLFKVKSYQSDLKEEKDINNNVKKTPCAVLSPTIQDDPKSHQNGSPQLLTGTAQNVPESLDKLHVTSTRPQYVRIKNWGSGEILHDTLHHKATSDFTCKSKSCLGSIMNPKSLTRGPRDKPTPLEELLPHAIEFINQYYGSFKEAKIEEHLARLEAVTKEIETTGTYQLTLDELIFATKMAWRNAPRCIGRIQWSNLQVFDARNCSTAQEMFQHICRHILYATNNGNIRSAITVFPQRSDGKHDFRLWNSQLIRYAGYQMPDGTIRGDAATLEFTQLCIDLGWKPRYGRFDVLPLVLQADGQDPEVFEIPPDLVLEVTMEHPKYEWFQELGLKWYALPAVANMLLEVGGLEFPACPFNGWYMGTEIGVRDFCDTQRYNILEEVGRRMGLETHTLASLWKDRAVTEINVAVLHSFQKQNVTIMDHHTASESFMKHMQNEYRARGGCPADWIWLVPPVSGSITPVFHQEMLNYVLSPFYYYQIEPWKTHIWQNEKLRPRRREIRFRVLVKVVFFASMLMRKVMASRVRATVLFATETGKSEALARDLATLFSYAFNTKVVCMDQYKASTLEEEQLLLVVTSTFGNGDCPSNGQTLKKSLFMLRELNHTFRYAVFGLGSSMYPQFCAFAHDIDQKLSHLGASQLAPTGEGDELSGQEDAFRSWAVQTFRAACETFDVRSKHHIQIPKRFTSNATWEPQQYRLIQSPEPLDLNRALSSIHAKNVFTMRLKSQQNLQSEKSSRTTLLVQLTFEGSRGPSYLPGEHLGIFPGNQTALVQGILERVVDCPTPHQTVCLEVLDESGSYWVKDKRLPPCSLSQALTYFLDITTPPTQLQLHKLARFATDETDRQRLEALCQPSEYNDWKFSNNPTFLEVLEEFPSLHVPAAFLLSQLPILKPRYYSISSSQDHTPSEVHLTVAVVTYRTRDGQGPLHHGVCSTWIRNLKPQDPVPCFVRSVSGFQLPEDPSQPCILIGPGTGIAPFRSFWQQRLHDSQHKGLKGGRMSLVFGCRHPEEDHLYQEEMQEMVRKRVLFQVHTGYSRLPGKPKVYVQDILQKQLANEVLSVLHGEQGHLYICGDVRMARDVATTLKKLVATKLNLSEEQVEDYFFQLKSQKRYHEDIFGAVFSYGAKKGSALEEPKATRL

[3] = target: T2, Muscarinic acetylcholine receptor M5 (Homo sapiens, UniProt P08912); assay type: cell membranes, CHO-K1, Membrane; settings: cho-k1; also: in other assays of this panel Not Active means under 50% inhibition at 10 µM
T2 sequence (P08912 whole entry): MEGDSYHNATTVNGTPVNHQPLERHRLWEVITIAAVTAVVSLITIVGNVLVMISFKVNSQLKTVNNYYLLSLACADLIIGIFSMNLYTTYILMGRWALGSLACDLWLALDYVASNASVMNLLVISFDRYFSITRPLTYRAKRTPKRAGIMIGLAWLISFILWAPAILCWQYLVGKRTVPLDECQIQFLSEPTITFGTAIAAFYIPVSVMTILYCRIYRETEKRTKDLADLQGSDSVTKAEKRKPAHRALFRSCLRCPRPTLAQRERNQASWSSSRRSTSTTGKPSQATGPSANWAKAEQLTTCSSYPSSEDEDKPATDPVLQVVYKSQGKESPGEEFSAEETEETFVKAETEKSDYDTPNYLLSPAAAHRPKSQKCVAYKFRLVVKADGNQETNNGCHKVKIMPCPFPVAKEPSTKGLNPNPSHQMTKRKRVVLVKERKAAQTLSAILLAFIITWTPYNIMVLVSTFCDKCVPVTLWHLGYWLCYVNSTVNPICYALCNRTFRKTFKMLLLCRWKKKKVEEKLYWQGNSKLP

[4] = target: T3, Calcitonin receptor (Homo sapiens, UniProt P30988); assay type: cell membranes, Membrane; settings: t47d; also: in other assays of this panel Not Active means under 50% inhibition at 10 µM
T3 sequence (P30988 whole entry): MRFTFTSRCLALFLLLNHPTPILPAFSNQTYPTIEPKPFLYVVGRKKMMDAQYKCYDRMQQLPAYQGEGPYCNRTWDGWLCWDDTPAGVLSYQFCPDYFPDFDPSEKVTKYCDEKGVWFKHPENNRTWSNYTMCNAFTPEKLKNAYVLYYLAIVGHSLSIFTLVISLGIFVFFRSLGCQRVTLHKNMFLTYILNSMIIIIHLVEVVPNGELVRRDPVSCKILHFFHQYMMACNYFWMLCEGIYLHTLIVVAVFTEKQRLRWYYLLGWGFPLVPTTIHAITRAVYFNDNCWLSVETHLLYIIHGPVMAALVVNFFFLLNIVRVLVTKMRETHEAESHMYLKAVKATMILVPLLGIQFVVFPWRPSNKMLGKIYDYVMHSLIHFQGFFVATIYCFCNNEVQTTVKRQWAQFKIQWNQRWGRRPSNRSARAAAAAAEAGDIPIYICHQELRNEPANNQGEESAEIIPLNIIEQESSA

[5] = DRUGMATRIX: Phosphodiesterase PDE3 enzyme inhibition (substrate: [3H]cAMP + cAMP); assay type: tissue-based, Homo sapiens; settings: platelet; Not Active = under 50% inhibition at 10 µM
[6] = target: Cytochrome P450 2C19 (Homo sapiens, UniProt P33261); settings: bti-tn-5b1-4; also: in other assays of this panel Not Active means under 50% inhibition at 10 µM
Chain of Cytochrome P450 2C19 (P33261 whole entry): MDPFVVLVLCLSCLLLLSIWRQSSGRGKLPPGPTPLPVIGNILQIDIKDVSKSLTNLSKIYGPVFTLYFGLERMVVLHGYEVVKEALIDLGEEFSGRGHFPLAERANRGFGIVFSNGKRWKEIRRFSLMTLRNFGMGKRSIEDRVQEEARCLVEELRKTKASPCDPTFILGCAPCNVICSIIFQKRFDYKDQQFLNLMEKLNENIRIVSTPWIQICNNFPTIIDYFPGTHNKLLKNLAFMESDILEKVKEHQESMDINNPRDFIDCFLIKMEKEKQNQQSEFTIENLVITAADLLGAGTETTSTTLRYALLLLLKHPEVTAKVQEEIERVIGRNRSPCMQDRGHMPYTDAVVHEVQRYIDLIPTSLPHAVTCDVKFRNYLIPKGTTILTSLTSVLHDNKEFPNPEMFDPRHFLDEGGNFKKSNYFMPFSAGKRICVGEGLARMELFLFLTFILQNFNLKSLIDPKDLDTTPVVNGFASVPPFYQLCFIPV

[7] = target: Nitric oxide synthase 1 (Rattus norvegicus, UniProt P29476); assay type: tissue-based, Cerebellum; also: in other assays of this panel Not Active means under 50% inhibition at 10 µM
Chain of Nitric oxide synthase 1 (P29476 whole entry): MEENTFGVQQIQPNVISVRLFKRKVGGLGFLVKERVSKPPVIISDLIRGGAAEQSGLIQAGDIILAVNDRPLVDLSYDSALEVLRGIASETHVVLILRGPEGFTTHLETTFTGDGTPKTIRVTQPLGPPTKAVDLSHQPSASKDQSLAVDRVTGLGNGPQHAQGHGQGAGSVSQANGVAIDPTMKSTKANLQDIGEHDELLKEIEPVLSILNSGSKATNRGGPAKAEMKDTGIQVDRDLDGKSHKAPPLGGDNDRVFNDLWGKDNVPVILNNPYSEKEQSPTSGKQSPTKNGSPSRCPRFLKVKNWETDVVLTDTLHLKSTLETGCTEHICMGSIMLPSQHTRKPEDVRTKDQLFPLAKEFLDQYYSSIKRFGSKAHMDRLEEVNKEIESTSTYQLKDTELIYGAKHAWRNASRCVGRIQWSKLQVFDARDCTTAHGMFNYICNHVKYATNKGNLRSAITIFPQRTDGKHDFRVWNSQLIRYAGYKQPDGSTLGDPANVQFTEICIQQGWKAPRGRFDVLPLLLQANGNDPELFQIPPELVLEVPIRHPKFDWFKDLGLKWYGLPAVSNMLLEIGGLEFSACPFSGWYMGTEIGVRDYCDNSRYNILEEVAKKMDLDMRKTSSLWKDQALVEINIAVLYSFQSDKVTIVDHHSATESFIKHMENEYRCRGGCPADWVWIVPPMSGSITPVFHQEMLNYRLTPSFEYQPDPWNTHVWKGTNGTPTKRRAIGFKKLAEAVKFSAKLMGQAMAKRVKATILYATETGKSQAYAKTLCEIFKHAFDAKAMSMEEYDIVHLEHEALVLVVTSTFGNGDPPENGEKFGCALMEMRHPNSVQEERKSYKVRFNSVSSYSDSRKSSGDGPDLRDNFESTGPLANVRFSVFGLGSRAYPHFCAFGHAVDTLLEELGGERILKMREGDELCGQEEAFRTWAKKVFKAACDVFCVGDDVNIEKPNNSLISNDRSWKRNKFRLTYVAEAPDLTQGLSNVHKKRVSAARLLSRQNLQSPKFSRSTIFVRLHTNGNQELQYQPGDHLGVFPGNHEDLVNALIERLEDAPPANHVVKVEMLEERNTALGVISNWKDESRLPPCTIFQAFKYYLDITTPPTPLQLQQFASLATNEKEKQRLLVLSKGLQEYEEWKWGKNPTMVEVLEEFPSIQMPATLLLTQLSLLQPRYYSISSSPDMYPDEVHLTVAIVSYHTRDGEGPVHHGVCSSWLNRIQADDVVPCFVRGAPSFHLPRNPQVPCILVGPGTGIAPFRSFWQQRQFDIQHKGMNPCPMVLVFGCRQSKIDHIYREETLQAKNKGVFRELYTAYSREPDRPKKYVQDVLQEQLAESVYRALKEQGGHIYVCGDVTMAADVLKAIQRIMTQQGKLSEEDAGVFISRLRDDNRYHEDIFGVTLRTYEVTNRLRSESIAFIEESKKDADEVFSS

Chain of Epidermal growth factor receptor (P00533 whole entry): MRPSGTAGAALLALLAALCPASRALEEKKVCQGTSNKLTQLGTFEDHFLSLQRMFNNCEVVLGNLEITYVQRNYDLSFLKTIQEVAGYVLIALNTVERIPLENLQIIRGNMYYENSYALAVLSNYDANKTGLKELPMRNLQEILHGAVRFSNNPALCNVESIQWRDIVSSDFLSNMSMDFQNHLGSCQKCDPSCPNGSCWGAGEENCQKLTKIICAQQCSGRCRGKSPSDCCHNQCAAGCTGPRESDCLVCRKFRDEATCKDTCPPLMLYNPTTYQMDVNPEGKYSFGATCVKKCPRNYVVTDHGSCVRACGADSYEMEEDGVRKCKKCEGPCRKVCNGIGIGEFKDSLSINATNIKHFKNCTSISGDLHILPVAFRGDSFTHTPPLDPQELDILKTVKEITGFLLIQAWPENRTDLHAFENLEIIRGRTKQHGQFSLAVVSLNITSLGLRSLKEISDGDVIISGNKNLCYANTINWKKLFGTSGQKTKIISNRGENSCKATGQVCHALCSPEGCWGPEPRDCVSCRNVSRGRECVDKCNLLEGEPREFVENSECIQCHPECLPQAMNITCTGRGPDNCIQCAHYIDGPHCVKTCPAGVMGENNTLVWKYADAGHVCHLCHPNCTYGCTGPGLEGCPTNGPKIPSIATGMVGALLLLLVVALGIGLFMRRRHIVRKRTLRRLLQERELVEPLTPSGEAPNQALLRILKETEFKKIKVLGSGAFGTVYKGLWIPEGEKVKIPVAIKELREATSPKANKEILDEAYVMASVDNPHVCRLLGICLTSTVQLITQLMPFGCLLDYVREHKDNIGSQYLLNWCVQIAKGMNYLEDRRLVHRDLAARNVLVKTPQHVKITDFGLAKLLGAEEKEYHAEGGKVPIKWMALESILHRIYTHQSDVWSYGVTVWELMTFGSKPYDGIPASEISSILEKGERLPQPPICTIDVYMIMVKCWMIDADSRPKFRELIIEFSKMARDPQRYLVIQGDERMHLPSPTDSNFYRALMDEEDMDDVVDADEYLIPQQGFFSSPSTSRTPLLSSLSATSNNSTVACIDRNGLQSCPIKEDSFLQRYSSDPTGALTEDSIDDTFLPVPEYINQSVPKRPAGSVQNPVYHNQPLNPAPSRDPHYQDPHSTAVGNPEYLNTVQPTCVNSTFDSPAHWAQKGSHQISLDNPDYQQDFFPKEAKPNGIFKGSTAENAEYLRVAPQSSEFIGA

CC(C)C[C@H]1C(=O)N2CCC[C@H]2[C@]2(O)O[C@](NC(=O)[C@@H]3C=C4c5cccc6[nH]cc(c56)C[C@H]4N(C)C3)(C(C)C)C(=O)N12 [ERGOCRYPTINE]
Not Active: IC50 [1] | IC50 [2] | IC50 [3] | IC50 [4] | IC50 [5] | Ki [5] | IC50 [6] | Ki [6] | IC50 [7]

C[C@]12CC[C@@H]3c4ccc(O)cc4CC[C@H]3[C@@H]1C[C@@H](O)[C@@H]2O [ESTRIOL]
Not Active: IC50 [1] | IC50 [2] | IC50 [3] | IC50 [4] | IC50 [5] | Ki [5] | IC50 [6] | Ki [6] | IC50 [7]

C#C[C@]1(O)CC[C@H]2[C@@H]3CCC4=CC(=O)CC[C@]4(C)[C@H]3CC[C@@]21C [ETHISTERONE]
Not Active: IC50 [1] | IC50 [2] | IC50 [3] | IC50 [4] | IC50 [5] | Ki [5] | IC50 [6] | Ki [6] | IC50 [7]

CC(O)(P(=O)(O)O)P(=O)(O)O [ETIDRONIC ACID]
Not Active: IC50 [1] | IC50 [2] | IC50 [3] | IC50 [4] | IC50 [5] | Ki [5] | IC50 [6] | Ki [6] | IC50 [7]

CN1CCN(c2c(F)cc3c(=O)c(C(=O)O)cn(CCF)c3c2F)CC1 [FLEROXACIN]
Not Active: IC50 [1] | IC50 [2] | IC50 [3] | IC50 [4] | IC50 [5] | Ki [5] | IC50 [6] | Ki [6] | IC50 [7]

O=c1[nH]c(=O)n([C@H]2C[C@H](O)[C@@H](CO)O2)cc1F [FLOXURIDINE]
Not Active: IC50 [1] | IC50 [2] | IC50 [3] | IC50 [4] | IC50 [5] | Ki [5] | IC50 [6] | Ki [6] | IC50 [7]

COC(=O)Nc1nc2cc(C(=O)c3ccc(F)cc3)ccc2[nH]1 [FLUBENDAZOLE]
Not Active: IC50 [1] | IC50 [2] | IC50 [3] | IC50 [4] | IC50 [5] | Ki [5] | IC50 [6] | Ki [6] | IC50 [7]

CC(=O)OCC(=O)[C@@]1(O)CC[C@H]2[C@@H]3CCC4=CC(=O)CC[C@]4(C)[C@@]3(F)[C@@H](O)C[C@@]21C [FLUDROCORTISONE ACETATE]
Not Active: IC50 [1] | IC50 [2] | IC50 [3] | IC50 [4] | IC50 [5] | Ki [5] | IC50 [6] | Ki [6] | IC50 [7]

CCOC(=O)c1ncn2c1CN(C)C(=O)c1cc(F)ccc1-2 [FLUMAZENIL]
Not Active: IC50 [1] | IC50 [2] | IC50 [3] | IC50 [4] | IC50 [5] | Ki [5] | IC50 [6] | Ki [6] | IC50 [7]

O=C(O)P(=O)(O)O [FOSCARNET]
Not Active: IC50 [1] | IC50 [2] | IC50 [3] | IC50 [4] | IC50 [5] | Ki [5] | IC50 [6] | Ki [6] | IC50 [7]
